From ChEMBL document CHEMBL1142989, “Synthesis and anti-cancer activity of C-ring-functionalized prodigiosin analogues” (2007)

Assay: Growth inhibition in human NCI60 cells
Type: functional
Conditions: for TGI: read-out: Log TGI (converted)

`COC(=O)CCC(=O)C1=C(C)/C(=C/c2[nH]c(-c3ccc[nH]3)cc2OC)N=C1C` showed a GI50 of 0.794 µM, an LC50 of 12.3 µM and a TGI of 3.24 µM.
`COC(=O)CCCCC(=O)C1=C(C)/C(=C/c2[nH]c(-c3ccc[nH]3)cc2OC)N=C1C` showed a GI50 of 0.646 µM, an LC50 of 6.46 µM and a TGI of 2.24 µM.
Work on `CCc1c(-c2ccc[nH]2)[nH]c(/C=C2\N=C(C)C(C(=O)CCCCC(=O)OC)=C2C)c1C` yielded a GI50 of 9.33 µM, an LC50 of 83.2 µM and a TGI of 33.9 µM.
Compound `COC(=O)CCCCCCCCC(=O)C1=C(C)/C(=C/c2[nH]c(-c3ccc[nH]3)cc2OC)N=C1C` has a GI50 of 16.2 µM, an LC50 of 95.5 µM and a TGI of 67.6 µM.
For `COc1cc(-c2ccc[nH]2)[nH]c1/C=C1\N=C(C)C(C(C)=O)=C1C` [PRODIGIOSIN5], the GI50 was 0.708 µM, the LC50 was 89.1 µM and the TGI was 40.7 µM.
`CCOC(=O)C1=C(C)/C(=C/c2[nH]c(-c3ccc[nH]3)cc2OC)N=C1C` [PRODIGIOSIN 4] showed a GI50 of 0.0468 µM, an LC50 of 12.3 µM and a TGI of 1.1 µM.
For `CCCCCC1=C/C(=C/c2[nH]c(-c3ccc[nH]3)cc2OC)N=C1C` [PRODIGIOSIN CHLORIDE], the GI50 was 0.0141 µM and the TGI was 2.09 µM.
